21 molecules from patent publication US9975903B2, “Condensed heterocyclic compound” (Takeda Pharmaceutical Company Limited, priority 2014, dated 2018) can be followed below.

Where a name gives a salt, the structure may show the parent alone.

T1 sequence (P98073 whole entry): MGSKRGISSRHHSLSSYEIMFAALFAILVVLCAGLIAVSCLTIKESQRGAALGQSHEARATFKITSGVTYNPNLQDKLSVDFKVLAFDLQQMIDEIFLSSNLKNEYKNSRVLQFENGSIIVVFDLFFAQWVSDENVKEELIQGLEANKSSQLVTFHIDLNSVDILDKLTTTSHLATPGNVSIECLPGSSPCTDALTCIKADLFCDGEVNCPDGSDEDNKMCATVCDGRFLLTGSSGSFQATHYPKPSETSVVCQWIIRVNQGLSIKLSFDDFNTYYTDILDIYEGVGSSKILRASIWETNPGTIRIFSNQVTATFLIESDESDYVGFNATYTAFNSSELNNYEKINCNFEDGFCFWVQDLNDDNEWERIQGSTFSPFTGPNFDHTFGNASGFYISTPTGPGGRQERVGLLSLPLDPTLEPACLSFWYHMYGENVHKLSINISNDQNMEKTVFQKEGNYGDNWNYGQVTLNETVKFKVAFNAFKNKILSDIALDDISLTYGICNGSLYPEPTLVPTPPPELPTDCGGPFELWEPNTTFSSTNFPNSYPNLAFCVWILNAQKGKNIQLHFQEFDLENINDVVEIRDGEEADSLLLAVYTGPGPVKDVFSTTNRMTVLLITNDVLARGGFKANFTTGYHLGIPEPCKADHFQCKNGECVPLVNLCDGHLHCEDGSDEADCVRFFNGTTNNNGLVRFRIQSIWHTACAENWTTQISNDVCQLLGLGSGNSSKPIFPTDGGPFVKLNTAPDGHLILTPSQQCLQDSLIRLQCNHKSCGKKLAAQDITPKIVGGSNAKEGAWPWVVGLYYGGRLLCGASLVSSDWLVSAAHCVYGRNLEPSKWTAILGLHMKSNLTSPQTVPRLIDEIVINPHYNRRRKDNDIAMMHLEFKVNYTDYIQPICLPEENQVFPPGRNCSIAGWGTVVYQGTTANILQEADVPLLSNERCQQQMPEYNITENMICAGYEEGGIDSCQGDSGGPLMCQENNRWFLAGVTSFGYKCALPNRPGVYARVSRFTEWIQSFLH

The first experiment has as its target T1, Human recombinant enteropeptidase (Homo sapiens, UniProt P98073).
T1 construct: purchased ITSI-Biosciences LLC #REN-260
As to the kind of experiment: Human enteropeptidase inhibitory activity (Test Example 1). It is filed as biochemical. The following applies: 3.3 μM test compound; inhibition rate from fluorescence intensity at 2 hours after the start of the reaction; read-out: 3.3 μM Inhibition. How it is done:
Human recombinant enteropeptidase (#REN-260, ITSI-Biosciences LLC) was diluted with an assay buffer (50 mM Tricine, pH 8.0, 0.01 (w/v) %, Tween 20, 10 mM CaCl2) to prepare a 24 mU/mL enzyme solution. Subsequently, 5FAM-Abu-Gly-Asp-Asp-Asp-Lys-Ile-Val-Gly-Gly-Lys(CPQ2)-Lys-Lys-NH2 (SEQ ID NO: 1, purity: 97.2%, CPC Scientific Inc.) was diluted with the assay buffer to prepare a 2.1 μM substrate solution. A test compound is dissolved in DMSO into a 1 mM solution, and the solution was diluted by 100-fold with the assay buffer to give a compound solution. To a 384-well black plate (#784076, Greiner Bio-One), 5 μL of the compound solution and 5 μL of the substrate solution were added and mixed, and 5 μL of the enzyme solution was then added to the mixture, followed by mixing to start the reaction. The fluorescence intensity was measured with a fluorescence plate reader EnVision (The Perkin-Elmer Corp.) at an excitation wavelength of 485 nm and a fluorescence wavelength of 535 nm. The same reaction as above except that the test compound was not contained was performed (test compound non-addition group). Furthermore, the same reaction as above except that the test compound and the enzyme were not contained was performed (control group). The inhibition rate was calculated using the fluorescence intensity at 2 hours after the start of the reaction by the following expression: Inhibition rate (%)=(1−((fluorescence intensity of test compound addition group)−(fluorescence intensity of control group))/((fluorescence intensity of test compound non-addition group)−(fluorescence intensity of control group)))×100
Turning to `N=C(N)Nc1ccc2c(c1)CCCCc1cc3c(cc1OC2=O)OC[C@H]3CC(=O)N[C@@H](CC(=O)O)C(=O)O` [Example 39, N-(((10S)-3-carbamimidamido-15-oxo-5,7,8,10,11,15-hexahydro-6H-12, 14-dioxabenzo[5,6]cyclodeca[1,2-f]inden-10-yl)acetyl)-L-aspartic acid], the inhibition (commonly the drop in the measured response relative to a control, in per cent) at 3.3 µM was 98%. The same measure, in the same setting: the result for `N=C(N)Nc1ccc2c(c1)CCCOc1c(cccc1C(=O)N(CC(=O)O)C(CC(=O)O)CC(=O)O)OC2=O` [Example 106, 3-(((10-Carbamimidamido-13-oxo-6,7,8,13-tetrahydrodibenzo[b,f][1,4]dioxecin-4-yl)carbonyl) (carboxymethyl)amino)pentanedioic acid] reads 100%; that for `COc1ccc(C[C@H](NC(=O)c2c(CCC(=O)NC(CC(=O)O)CC(=O)O)ccc3c2OCCCc2cc(NC(=N)N)ccc2C(=O)O3)C(=O)O)cc1` [Example 132, 3-((3-(10-carbamimidamido-4-(((1S)-1-carboxy-2-(4-methoxyphenyl)ethyl)carbamoyl)-13-oxo-6,7,8,13-tetrahydro-dibenzo[b,f] [1,4]dioxecin-3-yl)propanoyl)amino) pentanedioic acid], 100%; that for `N=C(N)Nc1ccc2c(c1)CCCOc1c(cccc1C(=O)Nc1ccc(S(=O)(=O)O)cc1)OC2=O` [Example 5, N-(((10-carbamimidamido-13-oxo-6,7,8,13-tetrahydro-dibenzo[b,f] [1,4]dioxecin-4-yl)carbonyl)amino) benzenesulfonic acid], 101%. On the same count and under the same terms, the result for `N=C(N)Nc1ccc2c(c1)CCCCc1c(CC(=O)N[C@@H](CC(=O)O)C(=O)O)cccc1OC2=O` [Example 32, N-((3-carbamimidamido-14-oxo-5,7,8,14-tetrahydro-6H-dibenzo[b,h]oxecin-9-yl)acetyl)-L-aspartic acid] reads 71%.

With `N=C(N)Nc1ccc2c(c1)CCCCOc1c(cccc1C(=O)N[C@@H](CC(=O)O)C(=O)O)OC2=O` [Example 82, N-((11-carbamimidamido-14-oxo-7,8,9,14-tetrahydro-6H-dibenzo[b,f][1,4]dioxacycloundecin-4-yl)carbonyl)-L-aspartic acid], the inhibition at 3.3 µM was found to be 102%.

On to `N=C(N)Nc1ccc2c(c1)CCc1cc(CCC(=O)N[C@@H](CC(=O)O)C(=O)O)ccc1OC2=O` [Example 56, N-(3-(9-carbamimidamido-6-oxo-11,12-dihydro-6H-dibenzo[b,f]oxocin-2-yl)propanoyl)-L-aspartic acid], for which the inhibition at 3.3 µM is 100%. Same read-out and setting: for `N=C(N)Nc1ccc2c(c1)CCCOc1c(CCC(=O)N[C@@H](Cc3ccc(O)cc3)C(=O)O)cccc1OC2=O` [Example 95, N-(3-(10-carbamimidamido-13-oxo-6,7,8,13-tetrahydro-dibenzo[b,f] [1,4]dioxecin-4-yl)propanoyl)-L-tyrosine] the value was 101%. `N=C(N)Nc1ccc2c(c1)CCCOc1c(ccc(CCC(=O)O)c1C(=O)N[C@@H](Cc1ccc(O)cc1)C(=O)O)OC2=O` [Example 113, N-((10-carbamimidamido-3-(2-carboxyethyl)-13-oxo-6,7,8,13-tetrahydro-dibenzo[b,f] [1,4]dioxecin-4-yl)carbonyl)-L-tyrosine]: the inhibition at 3.3 µM was 99%. Same read-out and setting: the result for `N=C(N)Nc1ccc2c(c1)CCCOc1c(cccc1C(=O)N(CC(=O)O)[C@@H](CC(=O)O)C(=O)O)OC2=O` [Example 104, N-((10-Carbamimidamido-13-oxo-6,7,8,13-tetrahydrodibenzo[b,f][1,4]dioxecin-4-yl)carbonyl)-N-(carboxymethyl)-L-aspartic acid] reads 100%; that for `N=C(N)Nc1ccc2c(c1)CCCOc1c(cccc1C(=O)N(Cc1ccc(C(=O)O)cc1)[C@@H](CC(=O)O)C(=O)O)OC2=O` [Example 143, N-((10-Carbamimidamido-13-oxo-6,7,8,13-tetrahydrodibenzo[b,f][1,4]dioxecin-4-yl)carbonyl)-N-(4-carboxybenzyl)-L-aspartic acid], 100%.

`N=C(N)Nc1ccc2c(c1)CCc1cccc(CCC(=O)N[C@@H](CC(=O)O)C(=O)O)c1OC2=O` [Example 54, N-(3-(9-carbamimidamido-6-oxo-11,12-dihydro-6H-dibenzo[b,f]oxocin-4-yl)propanoyl)-L-aspartic acid]: the inhibition at 3.3 µM was found to be 89%. As for `N=C(N)Nc1ccc2c(c1)CCCOc1cc(C(=O)N[C@@H](CC(=O)O)C(=O)O)ccc1OC2=O` [Example 81, N-((10-carbamimidamido-13-oxo-6,7,8,13-tetrahydro-dibenzo[b,f] [1,4]dioxecin-3-yl)carbonyl)-L-aspartic acid], the inhibition at 3.3 µM was 101%. Same read-out and setting: the result for `N=C(N)Nc1ccc2c(c1)CCCOc1c(CCC(=O)N[C@@H](CC(=O)O)C(=O)O)cccc1OC2=O` [Example 47, N-(3-(10-Carbamimidamido-13-oxo-6,7,8,13-tetrahydrodibenzo[b,f][1,4]dioxecin-4-yl)propanoyl)aspartic acid] reads 101%. Regarding `N=C(N)Nc1ccc2c(c1)CCCOc1c(cccc1C(=O)N(CC(=O)O)Cc1ccccc1C(=O)O)OC2=O` [Example 127], the inhibition at 3.3 µM is 100%. Same read-out and setting: for `N=C(N)Nc1ccc2c(c1)CCc1nc(CCC(=O)N[C@@H](CC(=O)O)C(=O)O)ccc1OC2=O` [Example 48, N-(3-(9-Carbamimidamido-6-oxo-11,12-dihydro-6H-[2]benzoxocino[4,3-b]pyridin-2-yl)propanoyl)-L-aspartic acid trifluoroacetate] the value was 42%; for `N=C(N)Nc1ccc2c(c1)CCCOc1c(cccc1C(=O)N(Cc1ccccc1)[C@@H](CC(=O)O)C(=O)O)OC2=O` [Example 107, N-benzyl-N-((10-carbamimidamido-13-oxo-6,7,8,13-tetrahydro-dibenzo[b,f] [1,4]dioxecin-4-yl)carbonyl)-L-aspartic acid], 101%; for `N=C(N)c1ccc2c(c1)CCCCc1cc(C(=O)N[C@@H](CC(=O)O)C(=O)O)ccc1C(=O)O2` [Example 69, N-((10-Carbamimidoyl-14-oxo-5,7,8,14-tetrahydro-6H-dibenzo[b,h]oxecin-3-yl)carbonyl)-L-aspartic acid trifluoroacetate], 100%.

As for `N=C(N)Nc1ccc2c(c1)CCCOc1c(cccc1C(=O)N(CC(=O)O)[C@@H](Cc1ccc(OCCNCC(=O)O)cc1)C(=O)O)OC2=O` [Example 121, N-((10-Carbamimidamido-13-oxo-6,7,8,13-tetrahydrodibenzo[b,f][1,4]dioxecin-4-yl)carbonyl)-N-(carboxymethyl)-O-(2-((carboxymethyl)amino)ethyl)-L-tyrosine], the inhibition at 3.3 µM worked out at 101%. Still for that read-out and setting: the result for `N=C(N)Nc1ccc2c(c1)CCCOc1c(cccc1C(=O)N[C@@H](CC(=O)O)C(=O)O)OC2=O` [Example 1, N-((10-Carbamimidamido-13-oxo-6,7,8,13-tetrahydrodibenzo[b,f][1,4]dioxecin-4-yl)carbonyl)-L-aspartic acid] reads 101%.

The experiment is the same for the next values; noted with them: read-out: 3.3 μM Inhibition.
With `N=C(N)c1ccc2c(c1)CCc1ccccc1C(=O)O2` [Example 59, 6-Oxo-11,12-dihydro-6H-dibenzo[b,f]oxocine-2-carboximidamide trifluoroacetate], the inhibition at 3.3 µM came to 57%.
